From US20130177609A1, “Compositions and Methods for Increasing Bioavailability of Topical Ophthalmic Drugs” (priority 2008, published 2013)
Like-named read-outs stand apart in the source and are kept apart here.

Assay: Example 2: ocular tissue pharmacokinetics after topical dose, decreasing dose volume at same total amount of drug
Format: in vivo, New Zealand Composite pigmented rabbits
Conditions: for DNAUC / AUC(0-t) / Cmax / Tmax: topical ocular; for exposure (absolute Cmax and AUC): constant 10 μg dose, varying volume/concentration
Protocol: This study was carried out using a non-crossover design involving a total of 84 New Zealand Composite pigmented rabbits arbitrarily divided into 3 groups of 28 rabbits each. Three compositions were prepared as aqueous suspensions substantially as disclosed above comprising 1, 0.33, and 0.1 mg/mL BOL-303242-X, respectively. Each composition also contained 100 mg/mL PEG 3350 and 10 mg/mL Tween® 80. The compositions were shipped to the test site as a ready-to-use suspension.
The test compositions were administered so as to achieve 10-μg topical dosed drug amount in each eye of all the study animals. The concentration of the composition and the instillation volume were varied between the three study groups to keep the dosed drug amount constant. Animals in Group 1 received 10 μL/eye of the 1.0 mg/mL composition; animals comprising Groups 2 and 3 received 30 μL/eye of the 0.33 mg/mL composition and 100 μL/eye of the 0.1 mg/mL composition, respectively.
At predetermined time intervals after dosing, rabbits (four per collection time) were euthanized after anesthetization and the eyes enucleated and dissected. Tear, aqueous humor, conjunctiva, cornea, and iris/ciliary body samples were collected from both eyes of each animal and stored frozen until being shipped on dry ice to the analytical laboratory. Samples were collected at 0.083, 0.25, 0.5, 1, 2, 4, and 6 hours after dosing. BOL-303242-X concentrations in the above tissues and matrices were determined by LC/MS/MS. For the purpose of calculating mean concentrations, a value of ½ the LLQ was assigned to all samples with concentrations below the LLQ (BLQ). In addition, any sample with a measured concentration that was more than 10-fold higher than the median concentration in the respective sample pool was considered an outlier, and was not included in any calculations. Similarly, concentrations that were 10-fold lower than the median value and below the LLQ were also considered to be outliers. The number of study samples that were determined to be outliers using the above criteria for each tissue/matrix in this study was: tears=14/144; conjunctiva=3/144; cornea=1/144; aqueous humor 2/144 and iris=4/144 samples.
Pharmacokinetic analysis of the composite concentration-versus-time data was performed using non-compartmental methods (WinNonlin version 5.2). Due to the destructive nature of the sampling regimen employed in this study, average composite data were used in the pharmacokinetic analysis.

[1] = Conjunctiva, 10 μL/eye of 1 mg/mL (10 μg)
[2] = Conjunctiva, 30 μL/eye of 0.33 mg/mL (10 μg)
[3] = Conjunctiva, 100 μL/eye of 0.1 mg/mL (10 μg)
[4] = Cornea, 10 μL/eye of 1 mg/mL (10 μg)
[5] = Cornea, 30 μL/eye of 0.33 mg/mL (10 μg)
[6] = Cornea, 100 μL/eye of 0.1 mg/mL (10 μg)
[7] = Iris/Ciliary Body, 30 μL/eye of 0.33 mg/mL (10 μg)
[8] = Iris/Ciliary Body, 100 μL/eye of 0.1 mg/mL (10 μg)
[9] = New Zealand Composite pigmented, rabbit, aqueous humor, topical or ocular, 10 ug, 10 μL/eye of 1 mg/mL (10 μg)
[10] = New Zealand Composite pigmented, rabbit, aqueous humor, topical or ocular, 10 ug, 30 μL/eye of 0.33 mg/mL (10 μg)
[11] = New Zealand Composite pigmented, rabbit, aqueous humor, topical or ocular, 10 ug, 100 μL/eye of 0.1 mg/mL (10 μg)
[12] = New Zealand Composite pigmented, rabbit, conjunctiva, topical or ocular, 10 ug, 10 μL/eye of 1 mg/mL (10 μg)
[13] = New Zealand Composite pigmented, rabbit, conjunctiva, topical or ocular, 10 ug, 30 μL/eye of 0.33 mg/mL (10 μg)
[14] = New Zealand Composite pigmented, rabbit, conjunctiva, topical or ocular, 10 ug, 100 μL/eye of 0.1 mg/mL (10 μg)
[15] = New Zealand Composite pigmented, rabbit, cornea, topical or ocular, 10 ug, 10 μL/eye of 1 mg/mL (10 μg)
[16] = New Zealand Composite pigmented, rabbit, cornea, topical or ocular, 10 ug, 30 μL/eye of 0.33 mg/mL (10 μg)
[17] = New Zealand Composite pigmented, rabbit, cornea, topical or ocular, 10 ug, 100 μL/eye of 0.1 mg/mL (10 μg)
[18] = New Zealand Composite pigmented, rabbit, iris/ciliary body, topical or ocular, 10 ug, 30 μL/eye of 0.33 mg/mL (10 μg)
[19] = New Zealand Composite pigmented, rabbit, iris/ciliary body, topical or ocular, 10 ug, 100 μL/eye of 0.1 mg/mL (10 μg)
[20] = New Zealand Composite pigmented, rabbit, tears, topical or ocular, 10 ug, 10 μL/eye of 1 mg/mL (10 μg)
[21] = New Zealand Composite pigmented, rabbit, tears, topical or ocular, 10 ug, 30 μL/eye of 0.33 mg/mL (10 μg)
[22] = New Zealand Composite pigmented, rabbit, tears, topical or ocular, 10 ug, 100 μL/eye of 0.1 mg/mL (10 μg)
[23] = Tears, 10 μL/eye of 1 mg/mL (10 μg)
[24] = Tears, 30 μL/eye of 0.33 mg/mL (10 μg)
[25] = Tears, 100 μL/eye of 0.1 mg/mL (10 μg)

## Cc1ccc2c(NCC(O)(CC(C)(C)c3cc(F)cc4c3OCC4)C(F)(F)F)cccc2n1 (stereo not drawn) [BOL-303242-X]
Aqueous Humor, 10 μL/eye of 1 mg/mL (10 μg)
  DNAUC: 0.800 ng*hr/g ÷ μg dose
Aqueous Humor, 30 μL/eye of 0.33 mg/mL (10 μg)
  DNAUC: 0.300 ng*hr/g ÷ μg dose
Aqueous Humor, 100 μL/eye of 0.1 mg/mL (10 μg)
  DNAUC: 0.700 ng*hr/g ÷ μg dose
[1]
  AUC(0-t): 0.742 µg·h/g
  DNAUC: 74.2 ng*hr/g ÷ μg dose
[2]
  AUC(0-t): 0.575 µg·h/g
  DNAUC: 57.5 ng*hr/g ÷ μg dose
[3]
  AUC(0-t): 0.212 µg·h/g
  DNAUC: 21.2 ng*hr/g ÷ μg dose
[4]
  AUC(0-t): 1.01 µg·h/g
  DNAUC: 101 ng*hr/g ÷ μg dose
[5]
  AUC(0-t): 1.02 µg·h/g
  DNAUC: 102 ng*hr/g ÷ μg dose
[6]
  AUC(0-t): 0.745 µg·h/g
  DNAUC: 74.5 ng*hr/g ÷ μg dose
Iris/Ciliary Body, 10 μL/eye of 1 mg/mL (10 μg)
  DNAUC: 27.3 ng*hr/g ÷ μg dose
Iris/Ciliary Body, 10 μL/eye of 1 mg/mL (10 μg), heavily influenced by 2 animals at 2 hour
  AUC(0-t): 0.273 µg·h/g
[7]
  AUC(0-t): 0.0206 µg·h/g
  DNAUC: 2.06 ng*hr/g ÷ μg dose
[8]
  AUC(0-t): 0.0186 µg·h/g
  DNAUC: 1.86 ng*hr/g ÷ μg dose
New Zealand Composite pigmented, rabbit, aqueous humor, topical or ocular, 10 ug, Aqueous Humor, 10 μL/eye of 1 mg/mL (10 μg), read-out: AUC(0-t)
  AUC(0-t): 8 ng·h/mL
New Zealand Composite pigmented, rabbit, aqueous humor, topical or ocular, 10 ug, Aqueous Humor, 30 μL/eye of 0.33 mg/mL (10 μg), read-out: AUC(0-t)
  AUC(0-t): 3 ng·h/mL
New Zealand Composite pigmented, rabbit, aqueous humor, topical or ocular, 10 ug, Aqueous Humor, 100 μL/eye of 0.1 mg/mL (10 μg), read-out: AUC(0-t)
  AUC(0-t): 7 ng·h/mL
[9]
  Cmax: 0.17 ng/mL
  Tmax: 120 min
[10]
  Cmax: 0.188 ng/mL
  Tmax: 120 min
[11]
  Cmax: 0.286 ng/mL
  Tmax: 120 min
[12]
  Cmax: 399 ± 100 ng/g
  Tmax: 4.98 min
[13]
  Cmax: 450 ± 269 ng/g
  Tmax: 15 min
[14]
  Cmax: 168 ± 101 ng/g
  Tmax: 15 min
[15]
  Cmax: 527 ± 213 ng/g
  Tmax: 30 min
[16]
  Cmax: 592 ± 297 ng/g
  Tmax: 4.98 min
[17]
  Cmax: 452 ± 129 ng/g
  Tmax: 15 min
New Zealand Composite pigmented, rabbit, iris/ciliary body, topical or ocular, 10 ug, 10 μL/eye of 1 mg/mL (10 μg)
  Tmax: 120 min
New Zealand Composite pigmented, rabbit, iris/ciliary body, topical or ocular, 10 ug, 10 μL/eye of 1 mg/mL (10 μg), heavily influenced by 2 animals at 2 hour
  Cmax: 262 ng/g
[18]
  Cmax: 41.9 ± 37.8 ng/g
  Tmax: 4.98 min
[19]
  Cmax: 5.92 ± 7.26 ng/g
  Tmax: 60 min
[20]
  Cmax: 247000 ng/g
  Tmax: 15 min
[21]
  Cmax: 32000 ng/g
  Tmax: 4.98 min
[22]
  Cmax: 7170 ng/g
  Tmax: 15 min
[23]
  AUC(0-t): 60.2 µg·h/g
  DNAUC: 6020 ng*hr/g ÷ μg dose
[24]
  AUC(0-t): 18.2 µg·h/g
  DNAUC: 1820 ng*hr/g ÷ μg dose
[25]
  AUC(0-t): 7.74 µg·h/g
  DNAUC: 774 ng*hr/g ÷ μg dose
cornea, iris/ciliary body and aqueous humor
  exposure (absolute Cmax and AUC): remained relatively constant
Dose volume decreased while drug concentration in the formulation increased proportionally
  ocular bioavailability: increases
tears
  exposure (absolute Cmax and AUC): increases as the concentration of the drug in the dose volume increases
